Assay results from patent US12258336B2, “Preparation of seimicarbazide-sensitive amine oxidase inhibitor and use thereof” (SHANGHAI ENNOVABIO PHARMACEUTICALS CO., LTD., priority 2018, dated 2025).

Columns and labels:
Assay type in all cases: biochemical
[1] = target: T1, Recombinant human SSAO protein (Homo sapiens, UniProt Q16853); test: In vitro inhibitory activity on SSAO/VAP-1 (MAO-Glo assay), human
T1 construct: Eli Lilly (provided, not a catalogue product)
T1 sequence (Q16853 1-763): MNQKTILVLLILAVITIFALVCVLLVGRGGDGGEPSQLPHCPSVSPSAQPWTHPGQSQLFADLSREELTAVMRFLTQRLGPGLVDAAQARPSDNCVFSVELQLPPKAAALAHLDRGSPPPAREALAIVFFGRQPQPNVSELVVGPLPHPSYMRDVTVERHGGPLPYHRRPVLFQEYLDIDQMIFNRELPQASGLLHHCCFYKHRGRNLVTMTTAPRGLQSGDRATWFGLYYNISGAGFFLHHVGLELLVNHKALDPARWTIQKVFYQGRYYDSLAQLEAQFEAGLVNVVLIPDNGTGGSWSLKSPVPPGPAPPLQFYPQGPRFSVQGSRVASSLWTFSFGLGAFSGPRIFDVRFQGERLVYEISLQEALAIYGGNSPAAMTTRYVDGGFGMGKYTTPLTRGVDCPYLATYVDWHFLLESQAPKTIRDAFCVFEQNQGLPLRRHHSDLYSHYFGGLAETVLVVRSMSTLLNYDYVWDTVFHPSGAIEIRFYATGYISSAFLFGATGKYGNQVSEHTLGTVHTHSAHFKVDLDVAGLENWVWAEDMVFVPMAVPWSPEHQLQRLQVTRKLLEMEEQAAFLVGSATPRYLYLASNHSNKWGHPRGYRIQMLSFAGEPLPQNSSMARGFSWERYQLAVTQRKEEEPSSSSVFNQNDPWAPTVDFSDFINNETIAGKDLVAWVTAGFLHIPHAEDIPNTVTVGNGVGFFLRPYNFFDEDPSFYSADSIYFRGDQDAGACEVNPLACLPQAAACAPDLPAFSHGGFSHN
Method: This assay was used to evaluate the in vitro inhibitory activity of the compounds on SSAO/VAP-1 of different species. Recombinant human SSAO protein, mouse SSAO protein or rat SSAO protein (provided by Eli Lilly) were used. The enzyme activity detection kit, MAO-Glo Assay kit (V1402) was purchased from Promega. Enzyme reaction buffer (50 mM HEPES, 120 mM NaCl, 5 mM KCl, 2 mM CaCl2, 1.4 mM MgCl2, 0.001% Tween-20, pH7.4) was prepared. The test compound was dissolved in DMSO and diluted by 3-fold concentration in gradient. The final concentration of test compound in a 10 μL reaction system was 1 μM to 0.05 nM when SSAO was detected. The content of DMSO in the detection reaction was 1%. After the solution of test compound in DMSO was diluted in the enzyme reaction buffer at a volume ratio of 1:25, 2.5 μL of which was added to each well of detection plate, two replicates for each concentration. 5 μL of SSAO protein diluted in the enzyme reaction buffer was added to each well, the final concentration of which was 10 nM to 80 nM in 10 μL reaction system. The mixture was incubated at room temperature for 10 minutes. 2.5 μL of the reaction substrate diluted in the enzyme reaction buffer was added to each well, the final concentration of which was 10 μM in 10 μL reaction system. After the mixture was reacted at room temperature for 120 minutes, 10 μL of detection reagent was added to each well. The reaction solution was incubated for 20 minutes at room temperature, and the plate was read with Synergy Neo 2 for detection. The value was converted into inhibition rate by the following formula: Inhibition rate=(Signalpositive−Signaltest)/(Signalpositive−Signalnegative)×100%
Signalpositive was positive control without test compound. Signalnegative was negative control without test compound and SSAO enzyme, and Signaltest was detection value of each compound at different concentrations. IC50 value was calculated by using 4 parameter curve fitting.

Recombinant human MAO-A = target: T2, Recombinant human MAO-A (Homo sapiens, UniProt P21397); test: Inhibitory activity on MAO-A
T2 construct: purchased Sigma M7316
T2 sequence (P21397 1-527): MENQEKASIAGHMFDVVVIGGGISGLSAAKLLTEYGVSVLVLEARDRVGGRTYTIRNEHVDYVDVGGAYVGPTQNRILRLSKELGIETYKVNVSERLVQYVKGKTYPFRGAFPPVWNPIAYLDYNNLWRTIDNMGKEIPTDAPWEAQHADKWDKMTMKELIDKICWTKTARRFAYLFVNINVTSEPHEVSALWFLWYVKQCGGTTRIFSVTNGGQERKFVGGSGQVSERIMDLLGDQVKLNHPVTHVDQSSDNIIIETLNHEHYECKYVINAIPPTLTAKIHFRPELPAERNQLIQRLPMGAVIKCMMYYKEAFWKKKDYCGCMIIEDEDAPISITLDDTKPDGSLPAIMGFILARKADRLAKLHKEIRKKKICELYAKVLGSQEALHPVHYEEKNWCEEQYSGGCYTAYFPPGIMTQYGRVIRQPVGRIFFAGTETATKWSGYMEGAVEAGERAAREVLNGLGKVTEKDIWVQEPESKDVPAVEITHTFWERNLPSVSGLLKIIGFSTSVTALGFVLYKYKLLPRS
Method: (§1) Recombinant human MAO-A and MAO-B protein was purchased from Sigma (M7316, M7441). Other reagents are the same as Biological Test Example 1. The final concentration of test compound in 10 μL reaction system was 100 μM to 5 nM when MAO-A and MAO-B were detected. The final concentrations of MAO-A and MAO-B protein in 10 μL reaction system were 70 nM and 300 nM, respectively, while other reaction conditions were the same as those in Biological Test Example 1. Data analysis and IC50 calculation method were the same as those in Biological Test Example 1.

Recombinant human MAO-B = target: T3, Recombinant human MAO-B (Homo sapiens, UniProt P27338); test: Inhibitory activity on MAO-B
T3 construct: purchased Sigma M7441
T3 sequence (P27338 1-520): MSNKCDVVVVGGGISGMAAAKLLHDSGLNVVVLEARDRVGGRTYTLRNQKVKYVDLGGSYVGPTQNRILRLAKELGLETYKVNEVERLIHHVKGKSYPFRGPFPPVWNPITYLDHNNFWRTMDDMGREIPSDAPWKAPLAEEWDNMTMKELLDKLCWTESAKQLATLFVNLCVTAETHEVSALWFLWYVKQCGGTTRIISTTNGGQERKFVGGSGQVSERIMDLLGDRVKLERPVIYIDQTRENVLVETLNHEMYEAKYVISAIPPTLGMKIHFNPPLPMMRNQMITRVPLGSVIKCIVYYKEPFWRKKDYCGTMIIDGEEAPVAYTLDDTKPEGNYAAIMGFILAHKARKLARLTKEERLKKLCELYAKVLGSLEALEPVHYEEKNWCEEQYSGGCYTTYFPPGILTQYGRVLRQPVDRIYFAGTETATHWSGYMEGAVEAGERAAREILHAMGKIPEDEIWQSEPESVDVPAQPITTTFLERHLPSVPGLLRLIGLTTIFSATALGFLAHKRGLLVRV
Method: as §1

IC50 [1]: > 0.05 µM
IC50 (Recombinant human MAO-A): 2 to 100 µM
IC50 (Recombinant human MAO-B): > 20 µM
Structure (SMILES): NC/C(=C\F)COc1cnc(N2CC3(COC3)C2)nc1 [Example 11]
